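Exposure lasted 48 hours, with cells grown in 96-well plates and compounds tested at five concentrations. GI50 = concentration required for 50% inhibition of growth.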 The source made the active and inactive calls. Cut-off read from the data, not from the text of the source: active = GI50 up to about 1.1 µM and inactive = higher.
Key:
Assay in all cases: inhibition of tumour cell growth, NCI panel, 48 h
KM-20L2 = tested on: KM-20L2
SNB-78 = tested on: SNB-78
BT-549 = tested on: BT-549
DU-145 = tested on: DU-145
MDA-MB-231 = tested on: MDA-MB-231
TK-10 = tested on: TK-10
LXFL 529 = tested on: LXFL 529

Row | Compound | GI50 (KM-20L2) | GI50 (SNB-78) | GI50 (BT-549) | GI50 (DU-145) | GI50 (MDA-MB-231) | GI50 (TK-10) | GI50 (LXFL 529)
1 | Cc1ccc2nc3c(C(=O)NCCN(C)C)cccc3cc2c1 | 0.75 µM (active) | 4.24 µM (inactive) | – | – | – | – | –
2 | CN1C2CC(=O)CC1[C@H](O)[C@@H]2O | – | – | > 100 µM (inactive) | > 100 µM (inactive) | > 100 µM (inactive) | > 100 µM (inactive) | –
3 | COc1cc2c(cc1OC)C(=O)/C(=C/c1cc(OC)c(OC)c(OC)c1)C2 | – | – | 36.9 µM (inactive) | > 100 µM (inactive) | 66.7 µM (inactive) | – | –
4 | COC(=O)C(NC(=O)c1ccccc1)C(c1ccc(Cl)cc1)P(=O)(OC)OC (stereo not given) | > 100 µM (inactive) | > 100 µM (inactive) | – | – | – | > 100 µM (inactive) | > 100 µM (inactive)
5 | CC(=O)O[C@H]1CC[C@H]2[C@@H]3CC[C@H]4Nc5c(cnn5S(C)(=O)=O)C[C@]4(C)[C@H]3CC[C@]12C | – | – | 27.5 µM (inactive) | > 100 µM (inactive) | > 100 µM (inactive) | – | –
6 | O=S1(=O)C[C@@H](NCc2ccccc2)[C@H](NCc2ccccc2)C1 | – | – | > 100 µM (inactive) | > 100 µM (inactive) | > 100 µM (inactive) | > 100 µM (inactive) | –
7 | COc1ccc2c3c1O[C@H]1C[C@@H](O)C=C[C@@]31CCN(C)C2 [GALANTAMINE] | > 150 µM (inactive) | 103 µM (inactive) | – | – | – | – | –
8 | CN1C2CCC1C(CO)C(=O)C2 (stereo not given) | – | – | > 100 µM (inactive) | > 100 µM (inactive) | > 100 µM (inactive) | 22.9 µM (inactive) | –
9 | CC1OC1C(=O)C1(O)C(C)C(O)C23OC2(C(O)c2c(O)cccc2C3=O)C1O (stereo not given) [CERVICARCIN] | 0.214 µM (active) | 0.267 µM (active) | – | – | – | – | –
10 | O=C1CN2C(Cl)(Cl)C2(c2ccccc2)c2cc(Cl)ccc2N1CC(F)(F)F (stereo not given) | 32.5 µM (inactive) | – | – | – | – | 50.2 µM (inactive) | –

Reference: ChEMBL document CHEMBL1201862, “PubChem BioAssay data set” (2004)
